Test results as given in patent US9220705B2, “Method of treating colorectal cancer” (priority 2013, dated 2015).

Legend:
[1] = system: CaCo-2; experiment: MTT cytotoxicity assay, 72 h; type: cell-based, human; settings: CaCo-2, colon
Description: (§1) Human breast (MCF-7) and colon (HCT-15, DDL1, SW480 and CaCo-2) carcinoma cell lines along with melanoma (A375) were obtained from the American Type Culture Collection (ATCC, Rockville, Md.). A431 are human cervical carcinoma cells kindly provided by Prof. F. Zunino (Molecular Pharmacology Unit, Experimental Oncology and Molecular Medicine, Istituto Nazionale dei Tumori, Milan, Italy). […] G. Marverti (Dept. of Biomedical Science, University of Modena, Italy). LoVo human colon-carcinoma cell line and its multidrug-resistant sublime (LoVo MDR) were kindly provided by Prof F. Maj one (Department of Biology of Padova University, Italy).
(§2) The growth inhibitory effect towards tumor cell lines was evaluated by means of the MTT (3-(4,5-dimethylthiazol-2-yl)-2,5-diphenyltetrazolium bromide) assay (Alley, M. C., et al., Cancer Res. 1988, 48, 589-601).
Briefly, depending upon the growth characteristics of the cell line, 3-8×10^3 cells well^−1, were seeded in 96-well microplates in growth medium (100 μL) and then incubated at 37° C. in a 5% carbon dioxide atmosphere. […] After an overnight incubation, the inhibition of cell growth induced by the tested complexes was determined by measuring the absorbance of each well at 570 nm using a BioRad 680 microplate reader. Mean absorbance for each drug dose was expressed as percentage of the control and plotted vs. drug concentration. […]

[2] = system: A375; experiment: MTT cytotoxicity assay, 72 h; type: cell-based, human; settings: A375, skin
Description: (§3) Human breast (MCF-7) and colon (HCT-15, DDL1, SW480 and CaCo-2) carcinoma cell lines along with melanoma (A375) were obtained from the American Type Culture Collection (ATCC, Rockville, Md.). A431 are human cervical carcinoma cells kindly provided by Prof. F. Zunino (Molecular Pharmacology Unit, Experimental Oncology and Molecular Medicine, Istituto Nazionale dei Tumori, Milan, Italy). […] G. Marverti (Dept. of Biomedical Science, University of Modena, Italy). LoVo human colon-carcinoma cell line and its multidrug-resistant sublime (LoVo MDR) were kindly provided by Prof F. Maj one (Department of Biology of Padova University, Italy). […] Cell lines were maintained in the logarithmic phase at 37° C. in a 5% carbon dioxide atmosphere using the following culture media containing 10% fetal calf serum (Euroclone, Milan, Italy), antibiotics (50 units mL^−1 penicillin and 50 μg mL^−1 streptomycin), and 2 mM L-glutamine in: i) RPMI-1640 medium (Euroclone) for MCF-7, HCT-15, A431, DLD 1, 2008, and C13* cells; ii) F-12 HAM'S (Sigma Chemical Co.) for LoVo, LoVo MDR, and LoVo-OXP cells; iii) DMEM for A375 and SW 480 cells; and iv) MEM for CaCo-2 cells.
as §2
(§4) Briefly, depending upon the growth characteristics of the cell line, 3-8×10^3 cells well^−1, were seeded in 96-well microplates in growth medium (100 μL) and then incubated at 37° C. in a 5% carbon dioxide atmosphere. After 24 h, the medium was removed and replaced with a fresh one containing the compound to be studied, at the appropriate concentration, dissolved in 0.9% sodium chloride solution just before use. Triplicate cultures were established for each treatment. After 72 h, each well was treated with […] of a 5 mg mL^−1 MTT saline solution and, after 5 h of incubation, 100 μL of a sodium dodecylsulfate (SDS) solution in 0.01 M HCl were added. After an overnight incubation, the inhibition of cell growth induced by the tested complexes was determined by measuring the absorbance of each well at 570 nm using a BioRad 680 microplate reader. Mean absorbance for each drug dose was expressed as percentage of the control and plotted vs. drug concentration. Dose-response curves were fitted and IC50 values were calculated with four parameter logistic model (4PL).
(§5) Compound 1 was prepared for the first time almost twenty years ago however, until now, it had been tested (both in vitro and in vivo) only in a limited number of tumor cell lines (Hoeschele, J. D., et al., J. Med. Chem. 1994, 37, 2630-2636 and Shamsuddin, S., et al., J. Inorg. Biochem. 1996, 61, 291-301). The Pt(II) and Pt(IV) complexes containing isomeric forms of diaminocyclohexane, [PtCl2(cis-1,4-DACHA](1), [PtCl2(1R,2R-DACH)] (2), [Pt(OXA)(cis-1,4-DACH)] (3), cis,trans,cis-[Pt^IVCl2(OH)2(cis-1,4-DACH)] (4), cis,trans,cis-[Pt^IVCl2(DCA)2(cis-1,4-DACH)] (5), [Pt(CBDCA)(cis-1,4-DACH)] (6), cis,trans,cis-[Pt^IV(OXA)(OH)2(cis-1,4-DACH)] (7), and cis,trans,cis-[Pt^IV(OXA)(DCA)2(cis-1,4-DACH)] (8) were evaluated for their cytotoxic activity towards a panel of human tumor cell lines including cervical (A431), breast (MCF-7), cancers along with a melanoma (A375) and 4 different colon cancer cell lines corresponding to different stages of the disease progression (HCT-15, SW480, CaCo-2, DLD-1). The cytotoxicity was evaluated by means of the MTT test for 72 h treatment with increasing concentrations of the tested compounds.

[3] = system: A431; experiment: MTT cytotoxicity assay, 72 h; type: cell-based, human; settings: A431, cervix
Description: as §3, §2, §4, §5

[4] = system: DLD-1; experiment: MTT cytotoxicity assay, 72 h; type: cell-based, human; settings: DLD-1, colon
Description: as §3, §2, §4, §5

[5] = system: HCT-15; experiment: MTT cytotoxicity assay, 72 h; type: cell-based, human; settings: HCT-15, colon
Description: as §3, §2, §4, §5

[6] = system: MCF-7; experiment: MTT cytotoxicity assay, 72 h; type: cell-based, human; settings: MCF-7, breast
Description: as §3, §2, §4, §5

[7] = system: SW480; experiment: MTT cytotoxicity assay, 72 h; type: cell-based, human; settings: SW480, colon
Description: as §3, §2, §4, §5

[8] = system: LoVo colon cancer cells; experiment: MTT cytotoxicity assay, cross-resistance profile; type: cell-based, human; settings: 72 h
Description: as §1, §2, §4
(§6) A LoVo cell line retaining a multidrug resistance phenotype was also considered (LoVo MDR). Cross-resistance profiles were evaluated by means of the resistance factor (RF), which is defined as the ratio between the IC50 value for the resistant cells and that arising from the sensitive cells (Table 2).

[9] = system: 2008 ovarian cancer cells; experiment: MTT cytotoxicity assay, cross-resistance profile; type: cell-based, human; settings: 72 h
Description: as §3, §2, §4, §6

[10] = system: C13* cisplatin resistant ovarian cancer cells; experiment: MTT cytotoxicity assay, cross-resistance profile; type: cell-based, human
Description: as §3, §2, §4, §6

[11] = system: LoVo-OXP oxaliplatin resistant colon cancer cells; experiment: MTT cytotoxicity assay, cross-resistance profile; type: cell-based, human
Description: as §3, §2, §4, §6

[12] = system: LoVo MDR multidrug resistant colon carcinoma subline; experiment: MTT cytotoxicity assay, cross-resistance profile; type: cell-based, human
Description: as §3, §2, §4, §6
In Table 2 are also reported the results obtained in a multidrug resistant (MDR) colon carcinoma subline, LoVo MDR, in which the resistance to doxorubicin, a drug belonging to the MDR spectrum, is associated with an overexpression of multi-specific drug transporters, such as the 170 kDa P-glycoprotein (P-gp) (Wersinger, C., et al., Amino Acids 2000, 19, 667-685). It is well known that acquired MDR, whereby cells become refractory to multiple drugs, poses most important challenge to the success of anticancer chemotherapy.

[13] = system: panel of human tumor cell lines (A431, MCF-7, A375, HCT-15, SW480, CaCo-2, DLD-1); experiment: MTT cytotoxicity, comparison over the Table 1 panel; type: cell-based; settings: in five out of the seven cell lines
Procedure: as §4, with “After” for “Briefly, depending upon the growth characteristics of the cell line, 3-8×10^3 cells well^−1, were seeded in 96-well microplates in growth medium (100 μL) and then incubated at 37° C. in a 5% carbon dioxide atmosphere. After”
The cytotoxicity was evaluated by means of the MTT test for 72 h treatment with increasing concentrations of the tested compounds.

“(OC-6-33)-dichloro(cis-1,4-cyclohexanediamine-N,N′)dihydroxyplatinum [Compound 4]” showed an IC50 [1] of 7.12 ± 3.13 µM, an IC50 [2] of 6.23 ± 1.96 µM and an IC50 [3] of 6.33 ± 1.99 µM. For the same substance, the IC50 [4] was 7.74 ± 2.16 µM, the IC50 [5] was 10.3 ± 1.42 µM and the IC50 [6] was 7.01 ± 2.05 µM. It also gave an IC50 [7] of 6.32 ± 2.15 µM, an IC50 [8] of 6.64 ± 2.7 µM and an IC50 [9] of 9.42 ± 1.16 µM. For the same substance, the IC50 ([10]; C13*, 72 h, MTT) was 13.8 ± 3.53 µM, the “R.F. (resistance factor)” value ([10]; IC50 C13* / IC50 2008, cross-resistance with cisplatin) was 1.5 and the “R.F. (resistance factor)” value ([11]; IC50 LoVo-OXP / IC50 LoVo, cross-resistance with oxaliplatin) was 1.6. For the same substance, the IC50 ([11]; LoVo-OXP, 72 h, MTT) was 9.46 ± 2.15 µM, the “R.F. (resistance factor)” value ([12]; IC50 LoVo-MDR / IC50 LoVo) was 1.5 and the IC50 ([12]; LoVo-MDR, 72 h, MTT) was 9.26 ± 2.11 µM. The “IC50 values fold lower than that of cisplatin” value [13] was “up to 2”.
